This assay deals with human PAD4 (hPAD4) (Homo sapiens, UniProt Q9UM07). Briefly: RFMS human PAD4 functional assay (rapid-fire mass spectrum). The settings on record: 5 nM hPAD4 enzyme, 250 μM BAEE, 50 μM Calcium; 30 min preincubation, 90 min reaction at 37° C. Type of assay: biochemical. As for the experimental part: Compounds of the present invention were assayed as inhibitors of PAD4 using the assay protocol described below.
RFMS tinman PAD4 Functional Assay:
Compounds were solubilized in 100% DMSO to achieve a 10 mM compound concentration. Compound stock solutions were stored at RT. A series of dilutions were prepared in DMSO and mixed 8 times with 20 μl, mixing volume. Final top concentration of compound in the assay is 50 μM. […] 1-90 min enzyme/substrate reaction, 30 min reaction with phenyl glyoxal at 37° C. • Stop solution: 40 μl 5% TCA in ACN
0.13 μL of compound solution was added to 13 μL of 10 nM PAD4 in assay buffer. After 30 min 13 μl of 500 μM of BAEE was added in 25 mM hepes, pH 7.5, 5 mM NaCl, 1 mM DTT, 0.2 mg/ml BS A, 0.01% CHAPS, 50 μM Calcium, 5 μM TPEN was added and the reaction incubated for 90 min at 37° C. The enzymatic reaction was quenched by addition of 15 μl of 6.1N TCA, 100% Final Concentration is 20%, 35 μl of 8.5 mM phenyl glyoxal (final concentration 4 mM) is then added and the reaction is incubated for 30 min at 37° C.
After 30 minutes the plates are spun down to remove all precipitate. The enzyme reaction was quenched with an equal volume of methanol containing internal standard (modified citrulline). Samples were loaded onto the Rapid Fire RF300 system (Agilent) wherein they were first sipped for 1000 ms and then directly loaded to a C18 separations cartridge using a mixture of acetonitrile containing 0.01% formic acid for 3000 ms desalting. The flow rate of the mobile phase was 1.5 ml/min.
The dwell time for each transition was set at 200 ms, and the ESI voltage was used at 5500 with a source temperature of 400° C. Extracted ion peaks for each transition were integrated using the Rapid Fire Integrator software. Peak area of analyte was normalized with internal standard).

Each structure is given as a SMILES string.

Sequence of human PAD4 (hPAD4) (Q9UM07 whole entry): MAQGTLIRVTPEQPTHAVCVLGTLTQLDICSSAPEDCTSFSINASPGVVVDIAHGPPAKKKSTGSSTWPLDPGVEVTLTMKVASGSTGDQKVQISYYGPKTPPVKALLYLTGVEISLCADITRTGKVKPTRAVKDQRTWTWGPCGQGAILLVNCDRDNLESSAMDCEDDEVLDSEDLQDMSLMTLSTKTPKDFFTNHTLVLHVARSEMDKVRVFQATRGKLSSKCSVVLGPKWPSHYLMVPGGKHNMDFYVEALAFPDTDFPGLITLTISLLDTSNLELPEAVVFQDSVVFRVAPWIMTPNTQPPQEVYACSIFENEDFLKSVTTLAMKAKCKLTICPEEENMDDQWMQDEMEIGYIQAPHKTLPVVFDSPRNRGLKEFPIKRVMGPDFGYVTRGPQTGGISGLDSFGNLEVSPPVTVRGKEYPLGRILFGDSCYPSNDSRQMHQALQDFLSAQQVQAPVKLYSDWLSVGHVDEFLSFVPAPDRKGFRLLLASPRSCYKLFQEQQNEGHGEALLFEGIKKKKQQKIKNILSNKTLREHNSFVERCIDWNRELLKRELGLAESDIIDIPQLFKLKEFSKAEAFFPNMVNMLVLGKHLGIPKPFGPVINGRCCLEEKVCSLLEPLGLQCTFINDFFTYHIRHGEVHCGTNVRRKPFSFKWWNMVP

For the compound `COc1cc(C(=O)N2CCC[C@@H](N)C2)cc2nc(-c3cc4cccnc4n3CC3CC3)n(CCNS(C)(=O)=O)c12` [Example 292, N-(2-{5-[(3R)-3-aminopiperidine-1-carbonyl]-2-[1-(cyclopropylmethyl)-1H-pyrrolo[2,3-b]pyridin-2-yl]-7-methoxy-1H-1,3-benzodiazol-1-yl}ethyl)methanesulfonamide], the IC50 was found to be 2060 nM.

As for `CCn1cc(Cn2c(-c3cc4cccnc4n3CC3CC3)nc3cc(C(=O)N4CC5CCC4[C@@H]5N)cc(OC)c32)cn1` (stereo partly drawn) [Example 489, (7R)-2-{2-[1-(cyclopropylmethyl)-1H-pyrrolo[2,3-b]pyridin-2-yl]-1-[(1-ethyl-1H-pyrazol-4-yl)methyl]-7-methoxy-1H-1,3-benzodiazole-5-carbonyl}-2-azabicyclo[2.2.1]heptan-7-amine], the IC50 amounted to 55 nM.

Take `COc1cc(C(=O)N2CC3CCC2[C@@H]3N)cc2nc(-c3cc4ccccc4n3CC3CC3)n(Cc3cnnn3C)c12` (stereo partly drawn) [Example 514, (7R)-2-{2-[1-(cyclopropylmethyl)-1H-indol-2-yl]-7-methoxy-1-[(1-methyl-1H-1,2,3-triazol-5-yl)methyl]-1H-1,3-benzodiazole-5-carbonyl}-2-azabicyclo[2.2.1]heptan-7-amine]: the IC50 was determined as 409 nM.

As for `COc1cc(C(=O)N2C[C@H]3CC[C@@H]2[C@@H]3N)cc2nc(-c3cc4cccnc4n3CC3CC3)n(CC3CN(c4nccnc4C#N)C3)c12` [Example 15, 3-[3-({5-[(1R,4R,7R)-7-amino-2-azabicyclo[2.2.1]heptane-2-carbonyl]-2-[1-(cyclopropylmethyl)-1H-pyrrolo[2,3-b]pyridin-2-yl]-7-methoxy-1H-1,3-benzodiazol-1-yl}methyl)azetidin-1-yl]pyrazine-2-carbonitrile], the IC50 was 47 nM.

For the compound `COc1cc(C(=O)N2CC3CCC2[C@@H]3N)cc2nc(-c3cc4cccnc4n3CC3CC3)n(C[C@@H]3CCN(c4ccnc(C#N)n4)C3)c12` (stereo partly drawn) [Example 205, 4-[(3R)-3-({5-[(1R,4R,7R)-7-amino-2-azabicyclo[2.2.1]heptane-2-carbonyl]-2-[1-(cyclopropylmethyl)-1H-pyrrolo[2,3-b]pyridin-2-yl]-7-methoxy-1H-1,3-benzodiazol-1-yl}methyl)pyrrolidin-l-yl]pyrimidine-2-carbonitrile], the half-inhibitory concentration (IC50) amounted to 37 nM.

Turning to `COc1cc(C(=O)N2C[C@H]3CC[C@@H]2[C@@H]3N)cc2nc(-c3cc4ccc(Cl)cc4n3CC3CC3)n(CC3CN(c4ccnc(C5CC5)n4)C3)c12` [Example 53, (1R,4R,7R)-2-{2-[6-chloro-1-(cyclopropylmethyl)-1H-indol-2-yl]-1-{[1-(2-cyclopropylpyrimidin-4-yl)azetidin-3-yl]methyl}-7-methoxy-1H-1,3-benzodiazole-5-carbonyl}-2-azabicyclo[2.2.1]heptan-7-amine], the 50% inhibitory concentration (IC50) was 157 nM.

Regarding `COc1cc(C(=O)N2C[C@H]3CC[C@@H]2[C@@H]3N)cc2nc(-c3cc4cccnc4n3CC3CC3)n(CC3CN(c4ccc(C#N)cc4)C3)c12` [Example 25, 4-[3-({5-[(1R,4R,7R)-7-amino-2-azabicyclo[2.2.1]heptane-2-carbonyl]-2-[1-(cyclopropylmethyl)-1H-pyrrolo[2,3-b]pyridin-2-yl]-7-methoxy-1H-1,3-benzodiazol-1-yl}methyl)azetidin-1-yl]benzonitrile], the IC50 turned out to be 72 nM.

With `COc1cc(C(=O)N2C[C@H]3CC[C@@H]2[C@@H]3N)cc2nc(-c3cc4cccnc4n3CC3CC3)n(C3CN(c4ccnc(C#N)n4)C3)c12` [Example 68, 4-(3-{5-[(1R,4R,7R)-7-amino-2-azabicyclo[2.2.1]heptane-2-carbonyl]-2-[1-(cyclopropylmethyl)-1H-pyrrolo[2,3-b]pyridin-2-yl]-7-methoxy-1H-1,3-benzodiazol-1-yl}azetidin-1-yl)pyrimidine-2-carbonitrile], the IC50 stood at 124 nM.

Consider `COc1cc(C(=O)N2C[C@H]3CC[C@@H]2[C@@H]3N)cc2nc(-c3cc4cccnc4n3CC3CC3)n(CC3CN(C(=O)c4ccnc(C)n4)C3)c12` [Example 119, (1R,4R,7R)-2-{2-[1-(cyclopropylmethyl)-1H-pyrrolo[2,3-b]pyridin-2-yl]-7-methoxy-1-{[1-(2-methylpyrimidine-4-carbonyl)azetidin-3-yl]methyl}-1H-1,3-benzodiazole-5-carbonyl}-2-azabicyclo[2.2.1]heptan-7-amine], for which the IC50 worked out at 69 nM.

With `COc1cc(C(=O)N2C[C@H](N)C[C@@H](F)C2)cc2nc(-c3cc4cccnc4n3CC3CC3)n(Cc3cc(C)nn3C)c12` [Example 515, (3R,5R)-1-{2-[1-(cyclopropylmethyl)-1H-pyrrolo[2,3-b]pyridin-2-yl]-1-[(1,3-dimethyl-1H-pyrazol-5-yl)methyl]-7-methoxy-1H-1,3-benzodiazole-5-carbonyl}-5-fluoropiperidin-3-amine], the IC50 was 501 nM.

Turning to `COc1cc(C(=O)N2C[C@H]3CC[C@@H]2[C@@H]3N)cc2nc(-c3cc4ccccc4n3CC3CC3)n(CC3CN(C(=O)c4cccc(C#N)c4)C3)c12` [Example 141, 3-[3-({5-[(1R,4R,7R)-7-amino-2-azabicyclo[2.2.1]heptane-2-carbonyl]-2-[1-(cyclopropylmethyl)-1H-indol-2-yl]-7-methoxy-1H-1,3-benzodiazol-1-yl}methyl)azetidine-1-carbonyl]benzonitrile], the IC50 was 14 nM.

Take `COc1cc(C(=O)N2C[C@H]3CC[C@@H]2[C@@H]3N)cc2nc(-c3cc4ccccc4n3CC3CC3)n(CC3CN(C(=O)c4ccccn4)C3)c12` [Example 167, (1R,4R,7R)-2-{2-[1-(cyclopropylmethyl)-1H-indol-2-yl]-7-methoxy-1-{[1-(pyridine-2-carbonyl)azetidin-3-yl]methyl}-1H-1,3-benzodiazole-5-carbonyl}-2-azabicyclo[2.2.1]heptan-7-amine]: the IC50 came to 31 nM.

For `COc1cc(C(=O)N2CC3CCC2[C@@H]3N)cc2nc(-c3cc4cccnc4n3CC3CC3)n(Cc3cnn(-c4cccc(O)n4)c3)c12` (stereo partly drawn) [Example 353, 6-[4-({5-[(7R)-7-amino-2-azabicyclo[2.2.1]heptane-2-carbonyl]-2-[1-(cyclopropylmethyl)-1H-pyrrolo[2,3-b]pyridin-2-yl]-7-methoxy-1H-1,3-benzodiazol-1-yl}methyl)-1H-pyrazol-1-yl]pyridin-2-ol], the IC50 amounted to 20 nM.

Consider `COc1cc(C(=O)N2C[C@H]3CC[C@@H]2[C@@H]3N)cc2nc(-c3cc4cccnc4n3CC3CC3)n(CC3CN(C(=O)c4ccc(C#N)cc4)C3)c12` [Example 112, 4-[3-({5-[(1R,4R,7R)-7-amino-2-azabicyclo[2.2.1]heptane-2-carbonyl]-2-[1-(cyclopropylmethyl)-1H-pyrrolo[2,3-b]pyridin-2-yl]-7-methoxy-1H-1,3-benzodiazol-1-yl}methyl)azetidine-1-carbonyl]benzonitrile], for which the IC50 worked out at 51 nM.

Regarding `COc1cc(C(=O)N2C[C@H]3CC[C@@H]2[C@@H]3N)cc2nc(-c3csc4ccc(Cl)cc34)n(CC3CN(c4ccnc(C#N)n4)C3)c12` [Example 315, 4-[3-({5-[(1R,4R,7R)-7-amino-2-azabicyclo[2.2.1]heptane-2-carbonyl]-2-(5-chloro-1-benzothiophen-3-yl)-7-methoxy-1H-1,3-benzodiazol-1-yl}methyl)azetidin-1-yl]pyrimidine-2-carbonitrile], the IC50 was found to be 929 nM.

The IC50 is the concentration at which inhibition is half-maximal.

Source of the values: patent US12692254B2, “Benzimidazole inhibitors of PAD enzymes” (BRISTOL-MYERS SQUIBB COMPANY, priority 2018, dated 2026).
